Results: patent US7674819B2 (Warner-Lambert Company LLC, priority 2005, dated 2010)
Positions count from the first letter of the chain named. Read-outs that look alike come from different tables or passages of the source.

How the values were obtained:
[1] = biological target: T1, hAR (Homo sapiens, UniProt P10275); experiment: Competitive binding of 3H-DHT to baculovirus/Sf9 generated hAR extracts; conditions: one hour at 4° C., mean of multiple tests
T1 sequence (P10275 1-920): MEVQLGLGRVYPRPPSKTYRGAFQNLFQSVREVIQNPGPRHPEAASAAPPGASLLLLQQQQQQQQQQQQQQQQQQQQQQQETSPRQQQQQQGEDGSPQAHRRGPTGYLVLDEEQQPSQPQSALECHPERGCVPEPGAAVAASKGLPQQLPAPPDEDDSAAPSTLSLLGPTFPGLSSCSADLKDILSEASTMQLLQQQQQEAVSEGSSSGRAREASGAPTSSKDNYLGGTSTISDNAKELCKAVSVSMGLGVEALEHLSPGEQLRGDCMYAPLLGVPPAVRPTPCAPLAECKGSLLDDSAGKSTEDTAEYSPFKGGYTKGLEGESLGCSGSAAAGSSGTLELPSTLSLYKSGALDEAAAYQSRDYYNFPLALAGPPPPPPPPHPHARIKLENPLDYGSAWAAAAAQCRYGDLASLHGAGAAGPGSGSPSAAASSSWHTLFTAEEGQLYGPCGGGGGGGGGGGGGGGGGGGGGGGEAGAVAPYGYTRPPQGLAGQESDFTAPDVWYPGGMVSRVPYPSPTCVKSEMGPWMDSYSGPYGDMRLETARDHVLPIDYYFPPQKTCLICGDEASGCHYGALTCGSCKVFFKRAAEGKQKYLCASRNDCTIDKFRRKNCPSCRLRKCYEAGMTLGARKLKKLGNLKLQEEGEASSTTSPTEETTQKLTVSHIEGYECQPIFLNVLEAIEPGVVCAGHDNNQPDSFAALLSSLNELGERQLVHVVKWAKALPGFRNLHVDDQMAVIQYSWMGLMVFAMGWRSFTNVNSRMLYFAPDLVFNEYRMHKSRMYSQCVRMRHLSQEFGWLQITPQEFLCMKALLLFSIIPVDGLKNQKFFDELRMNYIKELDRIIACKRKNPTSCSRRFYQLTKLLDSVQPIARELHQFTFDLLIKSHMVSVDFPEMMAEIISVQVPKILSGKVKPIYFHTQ
Outline: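 Baculovirus/Sf9-expressed hAR extract incubated with test compound, hydroxylapatite and 1 nM 3H-DHT tracer for 1 h at 4° C, then washed free of unbound tracer. Affinity given as concentration inhibiting half of maximal 3H-DHT binding.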

[2] = biological target: T2, androgen receptor (Homo sapiens, UniProt P10275); experiment: AR Antagonist Cell Assay (MDA-MB453-MMTV clone 54-19, luciferase reporter); format: cell-based; conditions: inhibition of induction by DHT (final concentration at 100 μM), 17 hr, compound 0.32-1000 nM, mean of multiple tests
T2 sequence (P10275 1-920 Q868H): T1 sequence (P10275 1-920) with Q868H
Outline: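 MDA-MB453 breast tumour cells stably carrying an ARE-containing MMTV promoter driving firefly luciferase, plated overnight at 37° C in charcoal-treated serum medium. DHT added (final […]) and incubated 17 hr at 37° C. Luminescence read after adding luciferase buffer; values are means of multiple tests.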

[3] = test system: spinal BMD; conditions: after 7 years of treatment; cited from earlier work
[4] = IC50, concentration at which one half of maximum binding of 1 nM 3H-DHT to hAR is inhibited

Row | SMILES | melting point [°C] | IC50 [1, 4] [nM] | IC50 [2] [nM] | IC50 ([2]; read-out: IC50) [nM] | IC50 ([1]; concentration at which one half of maximum binding of 1 nM 3H-DHT to hAR is inhibited, read-out: IC50) [nM] | increase in spinal BMD [3] [%]
1 | C[C@@H](c1ccc(F)cc1)N1CC(C)(C)[C@@H](Oc2ccc(C#N)c(C(F)(F)F)c2)C1=O (mixture of isomers) [Example 71, (±)-4-{1-[1-(4-Fluoro-phenyl)-ethyl]-4,4-dimethyl-2-oxo-pyrrolidin-3-yloxy}-2-trifluoromethyl-benzonitrile] | 114 to 115 |  |  |  |  | 
2 | CSc1ccc(CN2CC(C)(C)C(Oc3ccc(C#N)c(C(F)(F)F)c3)C2=O)cc1 (racemic) [Example 22, (±)-4-[4,4-Dimethyl-1-(4-methylsulfanyl-benzyl)-2-oxo-pyrrolidin-3-yloxy]-2-trifluoromethyl-benzonitrile] | 44.1 to 44.8 | 40 | 99 |  |  | 
3 | C[C@@H](c1ccc(F)cc1)N1CC(C)(C)[C@@H](Oc2ccc(C#N)c(C(F)(F)F)c2)C1=O (racemic) [Example 70, (±)-4-{1-[1-(4-Fluoro-phenyl)-ethyl]-4,4-dimethyl-2-oxo-pyrrolidin-3-yloxy}-2-trifluoromethyl-benzonitrile] | 82 to 83 | 52 | 85 |  |  | 
4 | CC(c1cccc(O)c1)N1CC(C)(C)C(Oc2ccc(C#N)c(C(F)(F)F)c2)C1=O (single isomer, unassigned; (+)) [Example 24, (+)-4-{1-[1-(3-Hydroxy-phenyl)-ethyl]-4,4-dimethyl-2-oxo-pyrrolidin-3-yloxy}-2-trifluoromethyl-benzonitrile] | 185.1 to 185.8 | 10 | 33 |  |  | 
5 | CC1(C)CN(Cc2nnc(-c3ccc(O)cc3O)o2)C(=O)C1Oc1ccc(C#N)c(C(F)(F)F)c1 (centres unmarked) [Example 123, 4-{1-[5-(2,4-Dihydroxy-phenyl)-[1,3,4]oxadiazol-2-ylmethyl]-4,4-dimethyl-2-oxo-pyrrolidin-3-yloxy}-2-trifluoromethyl-benzonitrile] |  | 61 |  | 176 |  | 
6 | CC1(C)CN(Cc2nnc(-c3ccccc3Cl)o2)C(=O)C1Oc1ccc(C#N)c(C(F)(F)F)c1 (centres unmarked) [Example 127, 4-{1-(5-(2-Chloro-phenyl)-[1,3,4]oxadiazol-2-ylmethyl]-4,4-dimethyl-2-oxo-pyrrolidin-3-yloxy}-2-trifluoromethyl-benzonitrile] |  |  |  | > 1000 | 198 | 
7 | CC(c1nnc(-c2ccccc2O)o1)N1CC(C)(C)C(Oc2ccc(C#N)c(C(F)(F)F)c2)C1=O (centres unmarked) [Example 130, 4-(1-{1-[5-(2-hydroxy-phenyl)-[1,3,4]oxadiazol-2-yl]-ethyl}-4,4-dimethyl-2-oxo-pyrrolidin-3-yloxy)-2-trifluoromethyl-benzonitrile] |  | 85 |  | 198 |  | 
8 | NCCCC(O)(P(=O)(O)O)P(=O)(O)O [alendronate] |  |  |  |  |  | ≤ 11
